Reference: US20220218701A1, “COMPOSITIONS AND METHODS COMPRISING ENDOTHELIN A RECEPTOR ANTAGONISTS AND ANDROGEN THERAPIES” (priority 2019, published 2022)
Entries after “also recorded” stand apart in the source; their conditions may differ.

What was measured:
ETAR = molecular target: T1, ETAR (Mus musculus, UniProt Q61614); assay: Il-6 expression (RT-PCR) in calvarial osteoblasts treated with ET-1; format: cell-based; settings: 100 μM zibotentan pre-treatment six hours, then 10 nM ET-1 four hours
T1 construct: Murine calvarial osteoblasts were collected and cultured as previously described; endogenous in cells; host or cells: primary murine calvarial osteoblasts
T1 sequence (Q61614 21-427): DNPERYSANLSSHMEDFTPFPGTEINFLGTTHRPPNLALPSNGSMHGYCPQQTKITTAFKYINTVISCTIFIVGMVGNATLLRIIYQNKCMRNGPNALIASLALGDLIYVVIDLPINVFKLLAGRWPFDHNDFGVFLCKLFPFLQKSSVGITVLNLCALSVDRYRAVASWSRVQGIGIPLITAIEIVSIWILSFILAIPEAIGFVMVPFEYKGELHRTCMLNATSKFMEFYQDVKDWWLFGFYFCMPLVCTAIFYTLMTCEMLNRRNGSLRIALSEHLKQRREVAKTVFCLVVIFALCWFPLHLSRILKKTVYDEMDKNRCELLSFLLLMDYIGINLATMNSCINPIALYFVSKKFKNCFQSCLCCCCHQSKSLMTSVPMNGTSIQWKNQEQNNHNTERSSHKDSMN
Protocol: Calvarial osteoblasts were cultured and pre-treated with or without 100 μM zibotentan for six hours followed by treatment with or without 10 nM ET-1 for four hours. RNA has then harvested and analyzed for the expression of Il-6, a marker of ET-1 action in osteoblasts. Il-6 expression was normalized to the housekeeping gene Rpl32. Data was analyzed using one-way ANOVA followed by Tukey's multiple comparison test.
Murine calvarial osteoblasts were collected and cultured as previously described^7. Two days post-confluence, osteoblasts were treated in triplicate with or without 100 μM zibotentan for six hours. This was followed by treatment with or without 10 nM ET-1 for four hours. RNA was collected using Direct-zol™ RNA MiniPrep Plus kit (Zymo, Irvine, Calif.) according to the manufacturer's directions. RNA was then analyzed by RT-PCR using the iTaq Universal SYBR Green One-Step Kit and a C1000 Thermal Cycler with a CFX96 fluorescent real-time attachment (Bio-Rad, Hercules, Calif.) using the following primers: Il-6: F, ccg gag agg aga ctt cac ag; R, gga aat tgg ggt agg aag ga; and Rpl32: F, cag ggt gcg gag aag gtt caa ggg; R, ctt aga gga cac gtt gtg agc aat. […] Changes in mRNA concentration were determined by subtracting […] (Δ=CtIl-6−CtRpl32). […] The fold difference was calculated as 2^ε.

[1] = molecular target: T2, endothelin B receptor (ETBR) (Homo sapiens, UniProt P24530); settings: cited from earlier work
T2 sequence (P24530 27-442): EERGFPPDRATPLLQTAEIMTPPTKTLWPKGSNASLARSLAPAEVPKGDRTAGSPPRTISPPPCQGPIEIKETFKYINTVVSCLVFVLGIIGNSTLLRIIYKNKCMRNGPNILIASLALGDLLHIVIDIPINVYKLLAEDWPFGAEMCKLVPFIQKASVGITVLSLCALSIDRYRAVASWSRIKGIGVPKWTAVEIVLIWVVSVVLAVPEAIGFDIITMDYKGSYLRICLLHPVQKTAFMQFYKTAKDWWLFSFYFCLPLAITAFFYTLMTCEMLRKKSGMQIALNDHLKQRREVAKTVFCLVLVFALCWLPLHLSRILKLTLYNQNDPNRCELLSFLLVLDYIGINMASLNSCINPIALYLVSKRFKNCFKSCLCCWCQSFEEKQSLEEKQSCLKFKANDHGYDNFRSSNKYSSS

[2] = as reported by the applicant's group; cited from earlier work
[3] = tested on: non-metastatic prostate cancer; settings: phase 3, monotherapy, non-metastatic disease; stopped early; cited from earlier work

COc1nc(C)cnc1NS(=O)(=O)c1cccnc1-c1ccc(-c2nnco2)cc1 [zibotentan]
Il-6 expression (marker of ET-1 action, normalized to Rpl32) (ETAR): prevented the increase in Il-6 expression; also recorded: blocks ETAR signaling
affinity for the endothelin B receptor (ETBR) [1]: no affinity
side effect underlying gastrointestinal effects [2]: immune-related damage of nasal olfactory epithelium leading to aerophagia and intestinal distention
overall survival (primary outcome) [3]: lack of effect
